In patent US20120010235A1, “N-SUBSTITUTED PYRROLIDINES” (priority 2010, published 2012):
Counter-ions that a name gives are not always drawn.

system: SJSA, an osteocarcinoma cell line; assay: antiproliferative activity assay (tetrazolium dye, MTT) in SJSA cells; details: cell-based MTT assay, inhibition of cell proliferation, read-out: TT IC50
Procedure: The pharmacological properties of the compounds of this invention may be confirmed by a number of pharmacological assays. The exemplified antiproliferative activity assay which follows has been carried out with the compounds according to the invention.
Cell proliferation was evaluated by the tetrazolium dye assay according to the procedure of Denizot and Lang (Denizot, F. and Lang, R. (1986) Rapid colorimetric assay for cell growth and survival. Modification to the terrazolium dye procedure giving improved sensitivity and reliability. J. Immunol. Methods 89, 271-277). The cell line used was SJSA, an osteocarcinoma cell line obtained from the American Type Cell Culture Collection (ATCC; Rockville, Md.). The cells were grown in PRMI with 10% FBS (Fetal Bovine Serum, Invitrogen).
Cells were plated at the appropriate seeding density to give logarithmic growth over the course of the assay in a 96-well tissue culture plate. Plates were incubated overnight at 37° C. in a humidified incubator with 5% CO2. The next day, test compounds were serially diluted 1:3 in the appropriate medium containing 3% DMSO. One-tenth final volume of each dilution was added […] to the plates containing cells. The same volume of 3% DMSO in medium was added to a row of control wells. Thus, the final concentration of DMSO in all wells was 0.3%. The plates were returned to the incubator, and at set time points (determined by their growth curves) plates were analyzed as follows: 3-(4,5-dimethylthiazole-2-yl)-2,5-diphenyl-2H-tetrazolium bromide (thiazolyl blue; MTT; Sigma) was added to each well to yield a final concentration of 1 mg/ml. Plates were returned to the incubator for 2.5 hours. The MTT-containing medium was removed and the resulting formazan metabolite was solubilized in 100% ethanol with shaking for 15 minutes at room temperature. Absorbances were read in a microtiter plate reader at a wavelength of 570 nm with a 650 nm reference. Percent inhibition (% INH) was calculated by subtracting the blank from all wells, then subtracting the ratio of the average absorbance of each triplicate (SAVE) by the average of the controls (CAVE) from 1.00. The final product was then multiplied by 100 (% INH=(1.00−SAVE/CAVE)×100). The concentration at which 50% inhibition (IC50) of cell proliferation is obtained was determined from the linear regression of a plot of the logarithm of the concentration versus percent inhibition.

IC50 | SMILES
460 nM | CNC(=O)c1ccc(NC(=O)[C@H]2[C@H](c3cccc(Cl)c3F)[C@@](C#N)(c3ccc(Cl)cc3F)[C@H](CC(C)(C)C)N2C)c(OC)c1 (racemic) [Example 51, rac-(2R,3S,4R,5S)-3-(3-chloro-2-fluoro-phenyl)-4-(4-chloro-2-fluoro-phenyl)-4-cyano-5-(2,2-dimethyl-propyl)-1-methyl-pyrrolidine-2-carboxylic acid (2-methoxy-4-methylcarbamoyl-phenyl)-amide]
190 nM | COc1cc(C(=O)O)ccc1NC(=O)[C@H]1[C@H](c2cccc(Cl)c2F)[C@@](C#N)(c2ccc(Cl)cc2F)[C@H](CC(C)(C)C)N1C [Example 31, 4-{[(2R,3S,4R,5S)-3-(3-chloro-2-fluoro-phenyl)-4-(4-chloro-2-fluoro-phenyl)-4-cyano-5-(2,2-dimethyl-propyl)-1-methyl-pyrrolidine-2-carbonyl]-amino}-3-methoxy-benzoic acid]
1360 nM | COc1cc(NC(=O)[C@H]2[C@H](c3cccc(Cl)c3F)[C@@](C#N)(c3ccc(Cl)cc3F)[C@H](CC(C)(C)C)N2C)ccc1C(=O)O (racemic) [Example 42, 4-{[(2R,3S,4R,5S)-3-(3-chloro-2-fluoro-phenyl)-4-(4-chloro-2-fluoro-phenyl)-4-cyano-5-(2,2-dimethyl-propyl)-1-methyl-pyrrolidine-2-carbonyl]-amino}-2-methoxy-benzoic acid]
430 nM | COc1cc(NC(=O)[C@H]2[C@H](c3cccc(Cl)c3F)[C@@](C#N)(c3ccc(Cl)cc3F)[C@H](CC(C)(C)C)N2CCC2CCCCC2)ccc1C(=O)O (racemic) [Example 48, 4-{[(2R,3S,4R,5S)-3-(3-chloro-2-fluoro-phenyl)-4-(4-chloro-2-fluoro-phenyl)-4-cyano-1-(2-cyclohexyl-ethyl)-5-(2,2-dimethyl-propyl)-pyrrolidine-2-carbonyl]-amino}-2-methoxy-benzoic acid trifluoroacetate salt]
390 nM | CN1[C@@H](CC(C)(C)C)[C@](C#N)(c2ccc(Cl)cc2F)[C@@H](c2cccc(Cl)c2F)[C@@H]1C(=O)Nc1ccc(C(=O)O)cc1 [Example 25, 4-{[(2R,3S,4R,5S)-3-(3-chloro-2-fluoro-phenyl)-4-(4-chloro-2-fluoro-phenyl)-4-cyano-5-(2,2-dimethyl-propyl)-1-methyl-pyrrolidine-2-carbonyl]-amino}-benzoic acid]
30 nM | COc1cc(C(=O)O)ccc1NC(=O)[C@H]1[C@H](c2cccc(Cl)c2F)[C@@](C#N)(c2ccc(Cl)cc2F)[C@H](CC(C)(C)C)N1CCCCCO (racemic) [Example 56, rac-4-{[(2R,3S,4R,5S)-3-(3-chloro-2-fluoro-phenyl)-4-(4-chloro-2-fluoro-phenyl)-4-cyano-5-(2,2-dimethyl-propyl)-1-(5-hydroxy-pentyl)-pyrrolidine-2-carbonyl]-amino}-3-methoxy-benzoic acid]
1230 nM | CCN1[C@@H](CC(C)(C)C)[C@](C#N)(c2ccc(Cl)cc2F)[C@@H](c2cccc(Cl)c2F)[C@@H]1C(=O)Nc1ccc(C(=O)O)c(OC)c1 (racemic) [Example 41, 4-{[(2R,3S,4R,5S)-3-(3-chloro-2-fluoro-phenyl)-4-(4-chloro-2-fluoro-phenyl)-4-cyano-5-(2,2-dimethyl-propyl)-1-ethyl-pyrrolidine-2-carbonyl]-amino}-2-methoxy-benzoic acid]
680 nM | CCOC(=O)C1CC1CN1[C@@H](CC(C)(C)C)[C@](C#N)(c2ccc(Cl)cc2F)[C@@H](c2cccc(Cl)c2F)[C@@H]1C(=O)Nc1ccc(C(=O)OC)cc1OC (stereo partly drawn) [Example 61, 4-{[(2R,3S,4R,5S)-3-(3-chloro-2-fluoro-phenyl)-4-(4-chloro-2-fluoro-phenyl)-4-cyano-5-(2,2-dimethyl-propyl)-1-(2-ethoxycarbonyl-cyclopropylmethyl)-pyrrolidine-2-carbonyl]-amino}-3-methoxy-benzoic acid methyl ester]
1490 nM | CCCN1[C@@H](CC(C)(C)C)[C@](C#N)(c2ccc(Cl)cc2F)[C@@H](c2cccc(Cl)c2F)[C@@H]1C(=O)Nc1ccc(C(=O)O)c(OC)c1 (racemic) [Example 49, 4-{[(2R,3S,4R,5S)-3-(3-chloro-2-fluoro-phenyl)-4-(4-chloro-2-fluoro-phenyl)-4-cyano-5-(2,2-dimethyl-propyl)-1-propyl-pyrrolidine-2-carbonyl]-amino}-2-methoxy-benzoic acid]
